From US8053435B2, “Naphthalenyloxypropenyl derivatives having inhibitory activity against histone deacetylase and pharmaceutical composition comprising the same” (Korea Research Institute of Chemical Technology, priority 2006, dated 2011) come the findings set out here.

pIC50: −log10 of the molar value. Like-named read-outs stand apart in the source and are kept apart here.

One test relates to HDAC. Briefly: Inhibitory activity against HDAC (BIOMOL Quantizyme Assay system, Fluor de Lys substrate). It counts as biochemical. The settings on record: HeLa nuclear extract as source of HDAC enzymes, enzyme reaction 1 hr; for pIC50: read-out: IC50 (HDAC inhibitory concentration). How it is done:
HDAC activity was analyzed using BIOMOL Quantizyme™ Assay system which comprised two steps of 1) enzyme reaction between HDAC and a substrate and 2) determination of the level of HDAC inhibitory activity.
(§1) 0.5 μl of HeLa nuclear organic layer (10 μM) (a source of HDAC enzymes) was then added thereto to a final concentration of 100 nM. The enzyme reaction was carried out for 1 hr.
Subsequently, in step 2), 2 μM tricostatin A was added to 50 μl of Flour de Lys™ developer, followed by allowing the mixture to react at room temperature for 15 minutes. The light excited at 355 nm and emitted at 460 nm from the fluorophore was measured with a fluorometric plate reader. The intensity of the fluorescence increases as the enzyme activity is higher. The HDAC inhibitory activity of each of the test compounds was determined and compared with that of the control.
0.5 μl of HeLa nuclear organic layer (10 μM) (a source of HDAC enzymes) was then added thereto to a final concentration of 100 nM, The enzyme reaction was carried out for 1 hr.
as §1, §1

The subject of test [1] is colon cancer cells HCT116. The experiment in a line: Inhibitory activity against proliferation of cancer cells, SRB (Sulforhodamine B) analysis. It counts as cell-based. The conditions noted are these: Homo sapiens, read-out: Inhibitory conc. against cancer cell growth (EC50 μM) HCT116. The procedure:
Cancer cells were inoculated into a 96-well microplate at a concentration of 1×10^3˜3×10^3 cells/well and incubated under the condition of 37° C., 5% CO2 for 24 hrs. After the incubation was completed, 0.2, 1, 5, 25, or 100 μM of each of the compounds of Examples was added to the plate, and then the reactant was incubated for 48 hrs. After the substrate was stained with SRB, the anti-cancer activity was determined by comparing the amount of protein in the cells treated with the compound of Examples with that of protein in untreated cells.
Specifically, after the incubation was completed, the culture medium was removed from each well, and the cells were washed 3 times with PBS (pH 7.4). Then, a solution of 50% trichloroacetic acid (TCA) was added to each well in an amount of 50 μl/well at 4° C. for 1 hr to fix them. Then, the microplate was washed 5 times with distilled water and dried in air. […]
50 μl of a staining solution prepared by dissolving 0.4% SRB in 1% acetic acid was added to the wells, and the microplate was kept at room temperature for 1 hr. The well plate was then washed 5 times with 1% acetic acid to remove unbound SRB and dried in air. The stained cells were treated with 150 μl/well of 10 mM Tris-HCl solution (pH 10.5) to elute SRB from the cells, and the absorbance of the cells treated with the compounds of examples at 540 nm was measured, based on the absorbance of an untreated cell. The EC50 value representing inhibition of the cancer cell growth by the extent of 50% was calculated from the measured absorbance, and the results are shown in Table 6.

Where [2] appears, read: HCT-116, Table 2, 48 hrs incubation with compound.

For `CN1CCC(NC(=O)/C(=C/c2ccc(C(=O)NO)cc2)COc2cccc3ccccc23)CC1` [Example 1-1, (E)-4-(3-(1-Methylpiperidin-4-ylamino)-2-((naphthalen-1-yloxy)methyl)-3-oxoprop-1-enyl)-N-hydroxybenzamide], the pIC50 in the test with HDAC (Table 1, formula (1) series) was 8.22. Further, the EC50 – broadly, the concentration at which the effect is half-maximal – in test [1] (setting [2]) amounted to 0.54 µM.

`CN(C)CC(C)(C)CNC(=O)/C(=C/c1ccc(C(=O)NO)cc1)COc1cccc2ccccc12` [Example 1-4]: the pIC50 with HDAC (Table 1, formula (1) series) was 7.85. Further, the EC50 in test [1] (setting [2]) was 0.5 µM.

Regarding `COCC(C)NC(=O)/C(=C/c1ccc(C(=O)NO)cc1)COc1cccc2ccccc12` (stereo not drawn) [Example 1-6, (E)-4-(3-(1-Methoxypropan-2-ylamino)-2-((naphthalen-1-yloxy)methyl)-3-oxoprop-1-enyl)-N-hydroxybenzamide], the pIC50 in the test on HDAC (Table 1, formula (1) series) is 7.64. The EC50 in test [1] (setting [2]) was 0.63 µM.

For `COc1ccc(CNC(=O)/C(=C/c2ccc(C(=O)NO)cc2)COc2cccc3ccccc23)cc1` [Example 1-7, (E)-4-(3-(4-Methoxybenzylamino)-2-((naphthalen-1-yloxy)methyl)-3-oxoprop-1-enyl)-N-hydroxybenzamide], the pIC50 with HDAC (Table 1, formula (1) series) is 8.00. Further, the EC50 in test [1] (setting [2]) was 0.7 µM.

`O=C(NCc1ccco1)/C(=C/c1ccc(C(=O)NO)cc1)COc1cccc2ccccc12` [Example 1-12, (E)-4-(3-(Furan-2-ylmethylamino)-2-((naphthalen-1-yloxy)methyl)-3-oxoprop-1-enyl)-N-hydroxybenzamide]: the pIC50 in the test with HDAC (Table 1, formula (1) series) is 8.15. Moreover, the EC50 in test [1] (setting [2]) stood at 0.6 µM.

Regarding `CN(C)c1ccc(CNC(=O)/C(=C/c2ccc(C(=O)NO)cc2)COc2cccc3ccccc23)cc1` [Example 1-13, (E)-4-(3-(4-(Dimethylamino)benzylamino)-2-((naphthalen-1-yloxy)methyl)-3-oxoprop-1-enyl)-N-hydroxybenzamide], the pIC50 with HDAC (Table 1, formula (1) series) was 7.70. The concentration giving a half-maximal response (EC50) in test [1] (setting [2]) was 0.8 µM.

For the compound `CCN1CCC(NC(=O)/C(=C/c2ccc(C(=O)NO)cc2)COc2cccc3ccccc23)CC1` [Example 1-17, (E)-4-(3-(1-Ethylpiperidin-4-ylamino)-2-((naphthalen-1-yloxy)methyl)-3-oxoprop-1-enyl)-N-hydroxybenzamide], the pIC50 in the test with HDAC (Table 1, formula (1) series) was 8.10. Also, in test [1] (setting [2]), the EC50 amounted to 0.5 µM.

Take `CC(C)N1CCC(NC(=O)/C(=C/c2ccc(C(=O)NO)cc2)COc2cccc3ccccc23)CC1` [Example 1-23, (E)-4-(3-(1-Isopropylpiperidin-4-ylamino)-2-((naphthalen-1-yloxy)methyl)-3-oxoprop-1-enyl)-N-hydroxybenzamide]: the half-maximal effective concentration (EC50) in test [1] (setting [2]) came to 0.7 µM.

For the compound `O=C(CCCC/C=C(\COc1cccc2ccccc12)C(=O)NC1CCCCC1)NO` [Example 2-14, (E)-N1-Cyclohexyl-N8-hydroxy-2-((naphthalen-1-yloxy)methyl)-2-octenediamide], the EC50 in test [1] (HCT-116, Table 4, 48 hrs incubation with compound) amounted to 0.8 µM.

In the case of `O=C(NO)c1ccc(/C=C(/CNC2CCCCC2)COc2cccc3ccccc23)cc1` [Example 4-21, (Z)-4-(3-(cyclohexylamino)-2-((naphthalen-1-yloxy)methyl)prop-1-enyl)-N-hydroxybenzamide], the IC50 in the test on HDAC (Table 7, formula (4) series, read-out: HDAC Inhibitory conc. (IC50, μM/ml)) was 0.03 µM.

With “(E)-(3-(3-(2-Methylpiperidin-1-yl)propylamino)-2-((naphthalen-1-yloxy)methyl)-3-oxoprop-1-enyl)-N-hydroxybenzamide [Example 1-19]”, the pIC50 with HDAC (Table 1, formula (1) series) was 8.05.

For the compound “(E)-(3-(3-(Pyrrolidin-1-yl)propylamino)-2-((naphthalen-1-yloxy)methyl)-3-oxoprop-1-enyl)-N-hydroxybenzamide [Example 1-20]”, in the test on HDAC (Table 1, formula (1) series), the pIC50 is 8.22.

On to “(E)-N1-(2-(Diisopropylamino)ethyl)-N8-hydroxy-2-((naphthalen-1-yloxy)methyl)octenediamide [Example 2-4]”, for which the pIC50 in the test on HDAC (Table 3, formula (2) series) was 8.05.

For the compound “(E)-N1-(3-(Dimethylamino)-2,2-dimethylpropyl)-N8-hydroxy-2-((naphthalen-1-yloxy)methyl)octenediamide [Example 2-3]”, the pIC50 with HDAC (Table 3, formula (2) series) is 7.68.
